Reference: patent US9334279B2, “Hepatitis C virus inhibitors” (BRISTOL-MYERS SQUIBB COMPANY, priority 2012, dated 2016)
Where two headings read alike, the source gives them in different places.

Key:
HCV GT1a(H77) replicon = assay: HCV replicon luciferase reporter assay, genotype 1a; type: cell-based, HCV genotype 1a; conditions: Hepatitis C virus, 72 h, HUH-7 cells, Renilla luciferase, 3 days incubation
Method in brief: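 Huh-7 cells stably carried a GT1a(H77) Renilla luciferase replicon with NS3 P1496L and NS5A S2204I adaptive mutations. Luminescence was read after 2 h with 7.5 μM EnduRen, and EC50 came from a four-parameter logistic fit; CC50 came from multiplexed Cell Titer-Blue (8 h).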

HCV GT1b(Con1) replicon = assay: HCV replicon luciferase reporter assay, genotype 1b; type: cell-based, HCV genotype 1b; conditions: Hepatitis C virus, 72 h, HUH-7 cells, Renilla luciferase, 3 days incubation
Method in brief: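 HUH-7 cells stably carrying a Con1 GT1b replicon with Renilla luciferase and Ser1179Ile adaptive mutation; 3.0×10^3 cells/well, DMEM 4% FCS, 0.5% DMSO, twenty-point 3-fold titration, 3 days 37 °C. Luminescence 2 h after 7.5 μM EnduRen; EC50 by four-parameter logistic fit. CC50 from multiplexed Cell Titer-Blue fluorescence (8 h).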

| Compound | EC50 (HCV GT1a(H77) replicon; read-out: LE_1a (EC50, range)) [nM] | EC50 (HCV GT1b(Con1) replicon; read-out: LE_1b (EC50, range)) [nM] | EC50 (HCV GT1a(H77) replicon; read-out: LE_1a (EC50)) [nM] | EC50 (HCV GT1b(Con1) replicon; read-out: LE_1b (EC50)) [nM] |
| --- | --- | --- | --- | --- |
| CC(C)Oc1ccc(-c2cc(O[C@@H]3C[C@H]4C(=O)N[C@]5(C(=O)NS(=O)(=O)C6(C)CC6)C[C@H]5/C=C\CC[C@H](C)C[C@@H](C)[C@H](NC(=O)OC5(C(F)(F)F)CCCOC5)C(=O)N4C3)cc(-c3cncs3)n2)cc1 (stereo partly drawn) [Compound 1018, 3-(trifluoromethyl)tetrahydro-2H-pyran-3-yl ((2R,6S,7R,9S,13aS,14aR,16aS,Z)-2-((2-(4-isopropoxyphenyl)-6-(thiazol-5-yl)pyridin-4-yl)oxy)-7,9-dimethyl-14a-(((1-methylcyclopropyl)sulfonyl)carbamoyl)-5,16-dioxo-1,2,3,5,6,7,8,9,10,11,13a,14,14a,15,16,16a-hexadecahydrocyclopropa[e]pyrrolo[1,2-a][1,4]diazacyclopentadecin-6-yl)carbamate] | 5.01 to 35 | 1.01 to 5 |  |  |
| C[C@@H]1CC/C=C\[C@@H]2C[C@@]2(C(=O)NS(=O)(=O)C2CC2)NC(=O)[C@@H]2C[C@@H](Oc3cc(Cl)ccn3)CN2C(=O)[C@@H](NC(=O)OC(C)(C)C(F)(F)F)[C@H](C)C1 [Compound 1026, 1,1,1-trifluoro-2-methylpropan-2-yl ((2R,6S,7R,9R,13aS,14aR,16aS,Z)-2-((4-chloropyridin-2-yl)oxy)-14a-((cyclopropylsulfonyl)carbamoyl)-7,9-dimethyl-5,16-dioxo-1,2,3,5,6,7,8,9,10,11,13a,14,14a,15,16,16a-hexadecahydrocyclopropa[e]pyrrolo[1,2-a][1,4]diazacyclopentadecin-6-yl)carbamate] | 5.01 to 35 | 5.01 to 35 |  |  |
| CC(C)Oc1ccc(-c2cc(O[C@@H]3C[C@H]4C(=O)N[C@]5(C(=O)NS(=O)(=O)C6(C)CC6)C[C@H]5/C=C\CC[C@H](C)C[C@@H](C)[C@H](NC(=O)OC(C)(C)C(F)(F)F)C(=O)N4C3)cc(-c3cccnc3)n2)cc1 [Compound 1006, 1,1,1-trifluoro-2-methylpropan-2-yl ((2R,6S,7R,9S,13aS,14aR,16aS,Z)-2-((6-(4-isopropoxyphenyl)-[2,3′-bipyridin]-4-yl)oxy)-7,9-dimethyl-14a-(((1-methylcyclopropyl)sulfonyl)carbamoyl)-5,16-dioxo-1,2,3,5,6,7,8,9,10,11,13a,14,14a,15,16,16a-hexadecahydrocyclopropa[e]pyrrolo[1,2-a][1,4]diazacyclopentadecin-6-yl)carbamate] | 5.01 to 35 | 5.01 to 35 |  |  |
| Cc1csc(-c2cc(O[C@@H]3C[C@H]4C(=O)N[C@]5(C(=O)NS(=O)(=O)C6(C)CC6)C[C@H]5/C=C\CC[C@@H](C)C[C@@H](C)[C@H](NC(=O)OC(C)(C)C(F)(F)F)C(=O)N4C3)ccn2)n1 [Compound 1045, 1,1,1-trifluoro-2-methylpropan-2-yl ((2R,6S,7R,9R,13aS,14aR,16aS,Z)-7,9-dimethyl-14a-(((1-methylcyclopropyl)sulfonyl)carbamoyl)-2-((2-(4-methylthiazol-2-yl)pyridin-4-yl)oxy)-5,16-dioxo-1,2,3,5,6,7,8,9,10,11,13a,14,14a,15,16,16a-hexadecahydrocyclopropa[e]pyrrolo[1,2-a][1,4]diazacyclopentadecin-6-yl)carbamate] | 1.01 to 5 | 0.1 to 0.5 |  |  |
| CC(C)Oc1ccc(-c2cc(O[C@@H]3C[C@H]4C(=O)N[C@]5(C(=O)NS(=O)(=O)C6(C)CC6)C[C@H]5/C=C\CC[C@@H](C)C[C@@H](C)[C@H](NC(=O)OC(C)(C)C(F)(F)F)C(=O)N4C3)cc(-c3cccnc3)n2)cc1 [Compound 1005, 1,1,1-trifluoro-2-methylpropan-2-yl ((2R,6S,7R,9R,13aS,14aR,16aS,Z)-2-((6-(4-isopropoxyphenyl)-[2,3′-bipyridin]-4-yl)oxy)-7,9-dimethyl-14a-(((1-methylcyclopropyl)sulfonyl)carbamoyl)-5,16-dioxo-1,2,3,5,6,7,8,9,10,11,13a,14,14a,15,16,16a-hexadecahydrocyclopropa[e]pyrrolo[1,2-a][1,4]diazacyclopentadecin-6-yl)carbamate] | 1.01 to 5 | 1.01 to 5 | 1.48 | 1.71 |
| Cc1cnc(-c2cc(O[C@@H]3C[C@H]4C(=O)N[C@]5(C(=O)NS(=O)(=O)C6(C)CC6)C[C@H]5/C=C\CC[C@@H](C)C[C@@H](C)[C@H](NC(=O)OC(C)(C)C(F)(F)F)C(=O)N4C3)ccn2)s1 [Compound 1043, 1,1,1-trifluoro-2-methylpropan-2-yl ((2R,6S,7R,9R,13aS,14aR,16aS,Z)-7,9-dimethyl-14a-(((1-methylcyclopropyl)sulfonyl)carbamoyl)-2-((2-(5-methylthiazol-2-yl)pyridin-4-yl)oxy)-5,16-dioxo-1,2,3,5,6,7,8,9,10,11,13a,14,14a,15,16,16a-hexadecahydrocyclopropa[e]pyrrolo[1,2-a][1,4]diazacyclopentadecin-6-yl)carbamate] | 0.51 to 1 | 0.1 to 0.5 |  |  |
| CC[C@@H]1O[C@H](C)CC/C=C\[C@@H]2C[C@@]2(C(=O)NS(=O)(=O)C2(C)CC2)NC(=O)[C@@H]2C[C@@H](Oc3cc(-c4ccc(C(F)(F)F)cc4)nc(-c4nccs4)c3)CN2C(=O)[C@H]1NC(=O)OC1(C(F)(F)F)CCCOC1 (stereo partly drawn) [Compound 1040, 3-(trifluoromethyl)tetrahydro-2H-pyran-3-yl ((2R,6S,7S,9R,13aS,14aR,16aS,Z)-7-ethyl-9-methyl-14a-(((1-methylcyclopropyl)sulfonyl)carbamoyl)-5,16-dioxo-2-((2-(thiazol-2-yl)-6-(4-(trifluoromethyl)phenyl)pyridin-4-yl)oxy)-2,3,5,6,7,9,10,11,13a,14,14a,15,16,16a-tetradecahydro-1H-cyclopropa[i]pyrrolo[1,2-e][1,5,8]oxadiazacyclopentadecin-6-yl)carbamate] | 0.51 to 1 | 0.1 to 0.5 |  |  |
| C[C@@H]1CC/C=C\[C@@H]2C[C@@]2(C(=O)NS(=O)(=O)C2(C)CC2)NC(=O)[C@@H]2C[C@@H](Oc3cc(-c4cccnc4)nc(-c4nccs4)c3)CN2C(=O)[C@@H](NC(=O)OC(C)(C)C(F)(F)F)[C@H](C)C1 [Compound 1050, 1,1,1-trifluoro-2-methylpropan-2-yl ((2R,6S,7R,9R,13aS,14aR,16aS,Z)-7,9-dimethyl-14a-(((1-methylcyclopropyl)sulfonyl)carbamoyl)-5,16-dioxo-2-((6-(thiazol-2-yl)-[2,3′-bipyridin]-4-yl)oxy)-1,2,3,5,6,7,8,9,10,11,13a,14,14a,15,16,16a-hexadecahydrocyclopropa[e]pyrrolo[1,2-a][1,4]diazacyclopentadecin-6-yl)carbamate] | 1.01 to 5 | 0.1 to 0.5 |  |  |
| CC(C)Oc1ccc(-c2cc(O[C@@H]3C[C@H]4C(=O)N[C@]5(C(=O)NS(=O)(=O)C6(C)CC6)C[C@H]5/C=C\CC[C@H](C)C[C@@H](C)[C@H](NC(=O)OC(C)(C)C(F)(F)F)C(=O)N4C3)cc(-c3cncs3)n2)cc1 [Compound 1004, 1,1,1-trifluoro-2-methylpropan-2-yl ((2R,6S,7R,9S,13aS,14aR,16aS,Z)-2-((2-(4-isopropoxyphenyl)-6-(thiazol-5-yl)pyridin-4-yl)oxy)-7,9-dimethyl-14a-(((1-methylcyclopropyl)sulfonyl)carbamoyl)-5,16-dioxo-1,2,3,5,6,7,8,9,10,11,13a,14,14a,15,16,16a-hexadecahydrocyclopropa[e]pyrrolo[1,2-a][1,4]diazacyclopentadecin-6-yl)carbamate] | 5.01 to 35 | 1.01 to 5 |  |  |
| C[C@H]1CC/C=C\[C@@H]2C[C@@]2(C(=O)NS(=O)(=O)C2(C)CC2)NC(=O)[C@@H]2C[C@@H](Oc3cc(-c4nccs4)ccn3)CN2C(=O)[C@@H](NC(=O)OC(C)(C)C(F)(F)F)[C@H](C)C1 [Compound 1032, 1,1,1-trifluoro-2-methylpropan-2-yl ((2R,6S,7R,9S,13aS,14aR,16aS,Z)-7,9-dimethyl-14a-(((1-methylcyclopropyl)sulfonyl)carbamoyl)-5,16-dioxo-2-((4-(thiazol-2-yl)pyridin-2-yl)oxy)-1,2,3,5,6,7,8,9,10,11,13a,14,14a,15,16,16a-hexadecahydrocyclopropa[e]pyrrolo[1,2-a][1,4]diazacyclopentadecin-6-yl)carbamate] | 5.01 to 35 | 5.01 to 35 |  |  |
| CC(C)Oc1ccc(-c2cc(O[C@@H]3C[C@H]4C(=O)N[C@]5(C(=O)NS(=O)(=O)C6(C)CC6)C[C@H]5/C=C\CC[C@@H](C)C[C@@H](C)[C@H](NC(=O)OC5(C(F)(F)F)CCCOC5)C(=O)N4C3)cc(-c3nccs3)n2)cc1 (stereo partly drawn) [Compound 1041, 3-(trifluoromethyl)tetrahydro-2H-pyran-3-yl ((2R,6S,7R,9R,13aS,14aR,16aS,Z)-2-((2-(4-isopropoxyphenyl)-6-(thiazol-2-yl)pyridin-4-yl)oxy)-7,9-dimethyl-14a-(((1-methylcyclopropyl)sulfonyl)carbamoyl)-5,16-dioxo-1,2,3,5,6,7,8,9,10,11,13a,14,14a,15,16,16a-hexadecahydrocyclopropa[e]pyrrolo[1,2-a][1,4]diazacyclopentadecin-6-yl)carbamate] | 0.51 to 1 | 0.51 to 1 |  |  |
